Test results published in ChEMBL document CHEMBL4177586, “Small molecule adjuvants that suppress both chromosomal and mcr-1 encoded colistin-resistance and amplify colistin efficacy in polymyxin-susceptible bacteria” (Bioorg Med Chem, 2017).
Values after ≈ are worked out from the molar mass of the structure shown.

Key:
Klebsiella pneumoniae [1] = assay: Potentiation of colistin-induced antimicrobial activity against colistin-resistant Klebsiella pneumoniae C5 assessed as reduction in colistin MIC at 15 uM incubated for overnight duration by CLSI based method relative to colistin alone control; format: functional
Escherichia coli [2] = assay: Potentiation of colistin-induced antimicrobial activity against Escherichia coli YD626 expressing mcr1 gene assessed as reduction in colistin MIC at 60 uM incubated for overnight duration by CLSI based method relative to colistin alone control; format: functional
Acinetobacter baumannii [3] = assay: Potentiation of colistin-induced antimicrobial activity against colistin-resistant Acinetobacter baumannii PM3941 assessed as colistin MIC at 60 uM incubated for overnight duration by CLSI based method (reference value: 512 ug/ml); format: functional
Klebsiella pneumoniae [4] = assay: Potentiation of colistin-induced antimicrobial activity against colistin-resistant Klebsiella pneumoniae C3 assessed as reduction in colistin MIC at 15 uM incubated for overnight duration by CLSI based method relative to colistin alone control; format: functional
Acinetobacter baumannii [5] = assay: Potentiation of colistin-induced antimicrobial activity against colistin-resistant Acinetobacter baumannii PM4119 assessed as colistin MIC at 30 uM incubated for overnight duration by CLSI based method (reference value: 1024 ug/ml); format: functional
Acinetobacter baumannii [6] = assay: Potentiation of colistin-induced antimicrobial activity against colistin-resistant Acinetobacter baumannii PM3942 assessed as colistin MIC at 30 uM incubated for overnight duration by CLSI based method (reference value: 512 ug/ml); format: functional
Acinetobacter baumannii [7] = assay: Potentiation of colistin-induced antimicrobial activity against colistin-resistant Acinetobacter baumannii PM3941 assessed as reduction in colistin MIC at 15 uM incubated for overnight duration by CLSI based method relative to colistin alone control; format: functional
Klebsiella pneumoniae [8] = assay: Potentiation of colistin-induced antimicrobial activity against colistin-resistant Klebsiella pneumoniae C3 assessed as colistin MIC at 60 uM incubated for overnight duration by CLSI based method (reference value: 512 ug/ml); format: functional
Acinetobacter baumannii [9] = assay: Potentiation of colistin-induced antimicrobial activity against Acinetobacter baumannii ATCC 17978 expressing mcr1 gene assessed as colistin MIC at 60 uM incubated for overnight duration by CLSI based method (reference value: 16 ug/ml); format: functional
Acinetobacter baumannii [10] = assay: Potentiation of colistin-induced antimicrobial activity against colistin-resistant Acinetobacter baumannii PM3942 assessed as colistin MIC at 15 uM incubated for overnight duration by CLSI based method (reference value: 512 ug/ml); format: functional
Acinetobacter baumannii [11] = assay: Potentiation of colistin-induced antimicrobial activity against colistin-resistant Acinetobacter baumannii PM3942 assessed as reduction in colistin MIC at 15 uM incubated for overnight duration by CLSI based method relative to colistin alone control; format: functional
Acinetobacter baumannii [12] = assay: Potentiation of colistin-induced antimicrobial activity against colistin-resistant Acinetobacter baumannii PM4112 assessed as colistin MIC at 30 uM incubated for overnight duration by CLSI based method (reference value: 1024 ug/ml); format: functional
Acinetobacter baumannii [13] = assay: Potentiation of colistin-induced antimicrobial activity against Acinetobacter baumannii SM1536 expressing mcr1 gene assessed as reduction in colistin MIC at 60 uM incubated for overnight duration by CLSI based method relative to colistin alone control; format: functional
Acinetobacter baumannii [14] = assay: Potentiation of colistin-induced antimicrobial activity against colistin-resistant Acinetobacter baumannii PM4119 assessed as reduction in colistin MIC at 60 uM incubated for overnight duration by CLSI based method relative to colistin alone control; format: functional
Klebsiella pneumoniae [15] = assay: Potentiation of colistin-induced antimicrobial activity against Klebsiella pneumoniae 2210291 expressing mcr1 gene assessed as reduction in colistin MIC at 60 uM incubated for overnight duration by CLSI based method relative to colistin alone control; format: functional
Escherichia coli [16] = assay: Potentiation of colistin-induced antimicrobial activity against Escherichia coli ATCC 25922 expressing mcr1 gene assessed as colistin MIC at 60 uM incubated for overnight duration by CLSI based method (reference value: 8 ug/ml); format: functional
Klebsiella pneumoniae [17] = assay: Potentiation of colistin-induced antimicrobial activity against colistin-resistant Klebsiella pneumoniae B9 assessed as colistin MIC at 30 uM incubated for overnight duration by CLSI based method (reference value: 512 ug/ml); format: functional
Klebsiella pneumoniae [18] = assay: Potentiation of colistin-induced antimicrobial activity against colistin-resistant Klebsiella pneumoniae C3 assessed as colistin MIC at 15 uM incubated for overnight duration by CLSI based method (reference value: 512 ug/ml); format: functional
Acinetobacter baumannii [19] = assay: Toxicity against multidrug resistant Acinetobacter baumannii 5075 incubated for overnight duration by CLSI based method; format: organism-based; conditions: in vivo

Structure (SMILES) | fold change (FC) (Klebsiella pneumoniae [1]) | fold change (FC) (Escherichia coli [2]) | MIC (Acinetobacter baumannii [3]) | fold change (FC) (Klebsiella pneumoniae [4]) | MIC (Acinetobacter baumannii [5]) | MIC (Acinetobacter baumannii [6]) | fold change (FC) (Acinetobacter baumannii [7]) | MIC (Klebsiella pneumoniae [8]) | MIC (Acinetobacter baumannii [9]) | MIC (Acinetobacter baumannii [10]) | fold change (FC) (Acinetobacter baumannii [11]) | MIC (Acinetobacter baumannii [12]) | fold change (FC) (Acinetobacter baumannii [13]) | fold change (FC) (Acinetobacter baumannii [14]) | fold change (FC) (Klebsiella pneumoniae [15]) | MIC (Escherichia coli [16]) | MIC (Klebsiella pneumoniae [17]) | MIC (Klebsiella pneumoniae [18]) | MIC (Acinetobacter baumannii [19])
CCCCCc1ccc(C(=O)NCCn2cc(CCCCCc3cnc(N)n3Cc3ccc(CCCC)cc3)nn2)cc1 | 4 | >2048 | 8 µg/mL | 8 | 4 µg/mL | 16 µg/mL | 16 | 8 µg/mL | 0.25 µg/mL | 32 µg/mL | 16 | 16 µg/mL | 64 | 512 | 128 | 0.031 µg/mL | 8 µg/mL | 64 µg/mL | –
CCCCCCc1ccc(-c2cn(CC)c(N)n2)cc1 | – | – | – | – | – | – | – | – | – | – | – | – | – | – | – | – | – | – | 200 µM (≈ 54.3 µg/mL)
